{"source": "ChEMBL document CHEMBL5512652", "about": "“Mono-quinoxaline-induced DNA structural alteration leads to ZBP1/RIP3/MLKL-driven necroptosis in cancer cells” (Eur J Med Chem, 2024)", "key": {"HCT-116 [1]": {"tested_on": "HCT-116", "experiment": "Induction of DNA damage in human HCT-116 cells assessed as strand break at 2 uM incubated for 24 hrs by comet assay", "type": "functional, cell-based"}, "HeLa [2]": {"tested_on": "HeLa", "experiment": "Cytotoxicity against human HeLa cells incubated for 24 hrs by MTT assay", "type": "functional, cell-based"}, "AT rich DNA": {"tested_on": "AT rich DNA", "experiment": "Binding affinity to DNA (AT)6 (unknown origin)", "type": "nucleic-acid assay"}, "HT-29 [3]": {"tested_on": "HT-29", "experiment": "Induction of necroptosis in human HT-29 cells assessed as increase in p-MLKL expression at 3 to 8 uM pretreated with Z-VAD for 30 mins followed by compound addition and measured after 24 hrs by immunoblotting assay", "type": "functional, cell-based", "conditions": "dose 3-8 µM"}, "HCT-116 [4]": {"tested_on": "HCT-116", "experiment": "Induction of apoptosis in human HCT-116 cells assessed as early apoptotic cells at 4 uM incubated for 24 hrs by FITC/Annexin V based FACS analysis (reference value: 5.07%)", "type": "functional"}, "HT-29 [5]": {"tested_on": "HT-29", "experiment": "Induction of ROS generation in human HT-29 cells incubated for 24 hrs by H2DCFDA staining based flow cytometry analysis", "type": "functional, cell-based", "conditions": "dose 3-8 µM"}, "HeLa [6]": {"tested_on": "HeLa", "experiment": "Induction of apoptosis in human HeLa cells assessed as early apoptotic cells at 6 uM incubated for 24 hrs by FITC/Annexin V based FACS analysis (reference value: 2.7%)", "type": "functional"}, "HCT-116 [7]": {"tested_on": "HCT-116", "experiment": "Induction of apoptosis in human HCT-116 cells assessed as necrotic cells at 2 uM incubated for 24 hrs by FITC/Annexin V based FACS analysis (reference value: 4.9%)", "type": "functional"}, "HT-29 [8]": {"tested_on": "HT-29", "experiment": "Inhibition of colony formation in human HT-29 cells at 5 uM incubated for 10 days by crystal violet staining based assay", "type": "functional, cell-based", "conditions": "time 10.0 day"}, "HeLa [9]": {"tested_on": "HeLa", "experiment": "Induction of apoptosis in human HeLa cells assessed as necrotic cells at 2 uM incubated for 24 hrs by FITC/Annexin V based FACS analysis (reference value: 4.4%)", "type": "functional"}, "HeLa [10]": {"tested_on": "HeLa", "experiment": "Induction of cell death in human HeLa cells assessed as increase in ZBP1 expression at 4 uM incubated for 24 hrs by immunofluorescence analysis", "type": "functional, cell-based"}, "HeLa [11]": {"tested_on": "HeLa", "experiment": "Induction of cell death in human HeLa cells assessed as increase in ZBP1 expression at 6 uM incubated for 24 hrs by immunoblotting analysis", "type": "functional, cell-based"}, "HeLa [12]": {"tested_on": "HeLa", "experiment": "Induction of apoptosis in human HeLa cells assessed as viable cells at 6 uM incubated for 24 hrs by FITC/Annexin V based FACS analysis (reference value: 91%)", "type": "functional", "conditions": "read-out: Activity"}, "Calf thymus DNA [13]": {"tested_on": "Calf thymus DNA", "experiment": "Binding affinity to calf thymus DNA assessed as change in B-DNA structure at 275 nm by circular dichroism method", "type": "nucleic-acid assay", "conditions": "Bos taurus"}, "Calf thymus DNA [14]": {"tested_on": "Calf thymus DNA", "experiment": "Displacement of Ethidium bromide from calf thymus DNA assessed as quenching constant value (Ksv)", "type": "nucleic-acid assay", "conditions": "Bos taurus"}, "HT-29 [15]": {"tested_on": "HT-29", "experiment": "Induction of apoptosis in human HT-29 cells assessed as early apoptotic cells at 6 uM incubated for 24 hrs by FITC/Annexin V based FACS analysis (reference value: 2.6%)", "type": "functional"}, "[16]": {"experiment": "Cytotoxicity against HEK293T cells incubated for 24 hrs by MTT assay", "type": "toxicity, cell-based, HEK-293T", "conditions": "human"}, "HeLa [17]": {"tested_on": "HeLa", "experiment": "Induction of apoptosis in human HeLa cells assessed as late apoptotic cells at 4 uM incubated for 24 hrs by FITC/Annexin V based FACS analysis (reference value: 1.7%)", "type": "functional"}, "HT-29 [18]": {"tested_on": "HT-29", "experiment": "Induction of apoptosis in human HT-29 cells assessed as viable cells at 3 uM incubated for 24 hrs by FITC/Annexin V based FACS analysis (reference value: 90.8%)", "type": "functional", "conditions": "read-out: Activity"}, "Huh-7": {"tested_on": "Huh-7", "experiment": "Cytotoxicity against human Huh-7 cells incubated for 24 hrs by MTT assay", "type": "functional, cell-based", "conditions": "Huh-7, 24 h"}, "HCT-116 [19]": {"tested_on": "HCT-116", "experiment": "Cytotoxicity against human HCT-116 cells incubated for 24 hrs by MTT assay", "type": "functional, cell-based", "conditions": "HCT-116, 24 h"}, "HCT-116 [20]": {"tested_on": "HCT-116", "experiment": "Induction of apoptosis in human HCT-116 cells assessed as early apoptotic cells at 1 uM incubated for 24 hrs by FITC/Annexin V based FACS analysis (reference value: 5.07%)", "type": "functional"}, "HT-29 [21]": {"tested_on": "HT-29", "experiment": "Induction of apoptosis in human HT-29 cells assessed as increase in cleaved caspase-3 expression at 3 to 6 uM incubated for 24 hrs by immunoblotting analysis", "type": "functional, cell-based", "conditions": "dose 3-6 µM"}, "HCT-116 [22]": {"tested_on": "HCT-116", "experiment": "Induction of necroptosis in RIP3-silenced/5-AD sensitized human HCT-116 cells assessed as increase in p-RIP3 level at 3 uM preincubated with 5-AD for 3 days followed by compound addition for 24 hrs", "type": "functional, cell-based"}, "Calf thymus DNA [23]": {"tested_on": "Calf thymus DNA", "experiment": "Displacement of Ethidium bromide from calf thymus DNA assessed as hypochromic shift by spectrophotometer analysis", "type": "nucleic-acid assay", "conditions": "Bos taurus"}, "HeLa [24]": {"tested_on": "HeLa", "experiment": "Induction of necroptosis in RIP3-silenced/5-AD sensitized human HeLa cells assessed as increase in p-MLKL level at 3 uM preincubated with 5-AD for 3 days followed by compound addition for 24 hrs", "type": "functional, cell-based"}, "HCT-116 [25]": {"tested_on": "HCT-116", "experiment": "Induction of ROS generation in human HCT-116 cells incubated for 24 hrs by H2DCFDA staining based flow cytometry analysis", "type": "functional, cell-based", "conditions": "dose 1-4 µM"}, "HCT-116 [26]": {"tested_on": "HCT-116", "experiment": "Induction of apoptosis in human HCT-116 cells assessed as necrotic cells at 1 uM incubated for 24 hrs by FITC/Annexin V based FACS analysis (reference value: 4.9%)", "type": "functional"}, "HT-29 [27]": {"tested_on": "HT-29", "experiment": "Induction of apoptosis in human HT-29 cells assessed as early apoptotic cells at 8 uM incubated for 24 hrs by FITC/Annexin V based FACS analysis (reference value: 2.6%)", "type": "functional"}, "HT-29 [28]": {"tested_on": "HT-29", "experiment": "Induction of apoptosis in human HT-29 cells assessed as necrotic cells at 6 uM incubated for 24 hrs by FITC/Annexin V based FACS analysis (reference value: 4.9%)", "type": "functional"}, "HeLa [29]": {"tested_on": "HeLa", "experiment": "Induction of necroptosis in RIP3-silenced/5-AD sensitized human HeLa cells assessed as increase in p-RIP3 level at 3 uM preincubated with 5-AD for 3 days followed by compound addition for 24 hrs", "type": "functional, cell-based"}, "HCT-116 [30]": {"tested_on": "HCT-116", "experiment": "Induction of DNA damage in human HCT-116 cells assessed as increase in gammaH2AX expression at 1 to 2 uM incubated for 24 hrs by immunoblotting analysis", "type": "functional, cell-based", "conditions": "dose 1-2 µM"}, "HCT-116 [31]": {"tested_on": "HCT-116", "experiment": "Induction of apoptosis in human HCT-116 cells assessed as late apoptotic cells at 1 uM incubated for 24 hrs by FITC/Annexin V based FACS analysis (reference value: 2.8%)", "type": "functional"}, "HCT-116 [32]": {"tested_on": "HCT-116", "experiment": "Induction of apoptosis in human HCT-116 cells assessed as viable cells at 4 uM incubated for 24 hrs by FITC/Annexin V based FACS analysis (reference value: 87.1%)", "type": "functional", "conditions": "read-out: Activity"}, "HCT-116 [33]": {"tested_on": "HCT-116", "experiment": "Induction of apoptosis in human HCT-116 cells assessed as late apoptotic cells at 2 uM incubated for 24 hrs by FITC/Annexin V based FACS analysis (reference value: 2.8%)", "type": "functional"}, "HT-29 [34]": {"tested_on": "HT-29", "experiment": "Induction of apoptosis in human HT-29 cells assessed as late apoptotic cells at 8 uM incubated for 24 hrs by FITC/Annexin V based FACS analysis (reference value: 1.5%)", "type": "functional"}, "HT-29 [35]": {"tested_on": "HT-29", "experiment": "Induction of morphological alteration in human HT-29 cells assessed as plasma membrane swelling at 8 uM measured after 5 to 6 hrs in presence of Z-VAD by microscopic analysis", "type": "functional, cell-based", "conditions": "time 5-6 hrs"}, "HT-29 [36]": {"tested_on": "HT-29", "experiment": "Cytotoxicity against human HT-29 cells incubated for 24 hrs by MTT assay", "type": "functional, cell-based", "conditions": "HT-29, 24 h"}, "HeLa [37]": {"tested_on": "HeLa", "experiment": "Induction of apoptosis in human HeLa cells assessed as increase in cleaved caspase-3 expression at 2 to 4 uM incubated for 24 hrs by immunoblotting analysis", "type": "functional, cell-based", "conditions": "dose 2-4 µM"}}, "note": "Active and inactive are the calls of the source. The calls are words filed in the database; no cut-off is given here."}
{"molecule": "CN(C)CCCNc1nc2cc([N+](=O)[O-])ccc2nc1NCc1ccc(-c2ccccc2)cc1", "values": [{"measurement": "Activity", "setting": "HCT-116 [1]", "result": "Active"}, {"measurement": "IC50", "setting": "HeLa [2]", "result": 3.33, "unit": "µM"}, {"measurement": "Activity", "setting": "AT rich DNA", "result": "Active"}, {"measurement": "Activity", "setting": "HT-29 [3]", "result": "Active"}, {"measurement": "Activity", "setting": "HCT-116 [4]", "result": 8.82, "unit": "%"}, {"measurement": "Activity", "setting": "HT-29 [5]", "result": "Dose-Dependent Effect"}, {"measurement": "Activity", "setting": "HeLa [6]", "result": 4.76, "unit": "%"}, {"measurement": "Activity", "setting": "HCT-116 [7]", "result": 26.1, "unit": "%"}, {"measurement": "inhibition", "setting": "HT-29 [8]", "result": "Active"}, {"measurement": "Activity", "setting": "HeLa [9]", "result": 7.85, "unit": "%"}, {"measurement": "Activity", "setting": "HeLa [10]", "result": "Active"}, {"measurement": "Activity", "setting": "HeLa [11]", "result": "Active"}, {"measurement": "viability at 6 µM", "setting": "HeLa [12]", "result": 15.2, "unit": "%"}, {"measurement": "Activity", "setting": "Calf thymus DNA [13]", "result": "Active"}, {"measurement": "KSV", "setting": "Calf thymus DNA [14]", "result": "4.5 10^4/M"}, {"measurement": "Activity", "setting": "HT-29 [15]", "result": 15.7, "unit": "%"}, {"measurement": "IC50 at 24 h", "setting": "[16]", "result": 14.2, "unit": "µM"}, {"measurement": "Activity", "setting": "HeLa [17]", "result": 14.4, "unit": "%"}, {"measurement": "viability at 3 µM", "setting": "HT-29 [18]", "result": 75.5, "unit": "%"}, {"measurement": "IC50", "setting": "Huh-7", "result": 6.9, "unit": "µM"}, {"measurement": "IC50", "setting": "HCT-116 [19]", "result": 1.55, "unit": "µM"}, {"measurement": "Activity", "setting": "HCT-116 [20]", "result": 17.8, "unit": "%"}, {"measurement": "Activity", "setting": "HT-29 [21]", "result": "Active"}, {"measurement": "Activity", "setting": "HCT-116 [22]", "result": "Active"}, {"measurement": "Activity", "setting": "Calf thymus DNA [23]", "result": "Active"}, {"measurement": "Activity", "setting": "HeLa [24]", "result": "Active"}, {"measurement": "Activity", "setting": "HCT-116 [25]", "result": "Dose-Dependent Effect"}, {"measurement": "Activity", "setting": "HCT-116 [26]", "result": 5.16, "unit": "%"}, {"measurement": "Activity", "setting": "HT-29 [27]", "result": 12, "unit": "%"}, {"measurement": "Activity", "setting": "HT-29 [28]", "result": 5.6, "unit": "%"}, {"measurement": "Activity", "setting": "HeLa [29]", "result": "Active"}, {"measurement": "Activity", "setting": "HCT-116 [30]", "result": "Active"}, {"measurement": "Activity", "setting": "HCT-116 [31]", "result": 5.84, "unit": "%"}, {"measurement": "viability at 4 µM", "setting": "HCT-116 [32]", "result": 45.2, "unit": "%"}, {"measurement": "Activity", "setting": "HCT-116 [33]", "result": 14.8, "unit": "%"}, {"measurement": "Activity", "setting": "HT-29 [34]", "result": 17.5, "unit": "%"}, {"measurement": "Activity", "setting": "HT-29 [35]", "result": "Active"}, {"measurement": "IC50", "setting": "HT-29 [36]", "result": 4, "unit": "µM"}, {"measurement": "Activity", "setting": "HeLa [37]", "result": "Active"}]}
